Measured values from PubChem BioAssay AID256 (DTP/NCI, 2004).
“And” between values parts separate entries of the source, which are not always exact repeats. Equal values may be shown once. Inconclusive results and toxic doses are left out. The calls were made as follows: active = survival T/C of 150% or more; inactive = T/C below 125% in these data.

Test system: CD2F1 mice, L1210 leukemia ip, survival T/C
Test: NCI In Vivo Anticancer Drug Screen. Data for tumor model L1210 Leukemia (intraperitoneal) in CD2F1 (CDF1) mice
Conditions: higher = longer survival
Experimental: The antitumor activity of compounds was measured in mice bearing transplantable tumors. Survival or tumor size were measured and the results are expressed as the measurement made in the treated group (T) divided by the measurement made in the vehicle treated control group (C). The tumor model used in this assay is L1210 Leukemia (intraperitoneal) in CD2F1 (CDF1) mice

[1] = endpoint: mean survival time, dose: 100.0 mg/kg/injection, schedule: Q04DX003 (ip), vehicle: saline with Tween-80
[2] = endpoint: mean survival time, dose: 200.0 mg/kg/injection, schedule: Q04DX003 (ip), vehicle: saline with Tween-80
[3] = endpoint: mean survival time, dose: 100.0 mg/kg/injection, schedule: Q01DX009 (ip), vehicle: saline with Tween-80
[4] = endpoint: mean survival time, dose: 200.0 mg/kg/injection, schedule: Q01DX009 (ip), vehicle: saline with Tween-80
[5] = endpoint: mean survival time, dose: 400.0 mg/kg/injection, schedule: Q01DX009 (ip), vehicle: saline with Tween-80
[6] = endpoint: mean survival time, dose: 50.0 mg/kg/injection, schedule: Q01DX009 (ip), vehicle: saline with Tween-80
[7] = endpoint: mean survival time, dose: 100.0 mg/kg/injection, schedule: Q04DX003 (ip), vehicle: saline
[8] = endpoint: mean survival time, dose: 200.0 mg/kg/injection, schedule: Q04DX003 (ip), vehicle: saline
[9] = endpoint: mean survival time, dose: 400.0 mg/kg/injection, schedule: Q04DX003 (ip), vehicle: saline

Measured: T/C

CC(C)(C)N1CC1
inactive: endpoint: mean survival time, dose: 100.0 mg/kg/injection, schedule: Q04DX002 (ip), vehicle: saline with Tween-80 102 % of control | endpoint: mean survival time, dose: 400.0 mg/kg/injection, schedule: Q04DX002 (ip), vehicle: saline with Tween-80 94 % of control

CCCCOCCN1CCN(CCCN2c3ccccc3Sc3ccc(C(F)(F)F)cc32)CC1
inactive: endpoint: mean survival time, dose: 2.3 mg/kg/injection, schedule: Q01DX001 (ip), vehicle: saline 106 % of control | endpoint: mean survival time, dose: 3.5 mg/kg/injection, schedule: Q01DX001 (ip), vehicle: saline 100 % of control | endpoint: mean survival time, dose: 5.2 mg/kg/injection, schedule: Q01DX001 (ip), vehicle: saline 105 % of control | endpoint: mean survival time, dose: 7.2 mg/kg/injection, schedule: Q01DX001 (ip), vehicle: saline 112 % of control | endpoint: mean survival time, dose: 11.0 mg/kg/injection, schedule: Q01DX001 (ip), vehicle: saline 107 % of control | endpoint: mean survival time, dose: 16.0 mg/kg/injection, schedule: Q01DX001 (ip), vehicle: saline 104 % of control

O=[N+]([O-])c1ccc2nocc2c1
inactive: endpoint: mean survival time, dose: 25.0 mg/kg/injection, schedule: Q04DX003 (ip), vehicle: Klucel (hydroxypropylcellulose) (HPC) 105 % of control | endpoint: mean survival time, dose: 50.0 mg/kg/injection, schedule: Q04DX003 (ip), vehicle: Klucel (hydroxypropylcellulose) (HPC) 97 % of control | endpoint: mean survival time, dose: 100.0 mg/kg/injection, schedule: Q04DX003 (ip), vehicle: Klucel (hydroxypropylcellulose) (HPC) 101 % of control

CN1CCc2cc(O)cc3c2C1Cc1ccc(O)c(O)c1-3 (stereo not drawn)
inactive: endpoint: mean survival time, dose: 25.0 mg/kg/injection, schedule: Q04DX003 (ip), vehicle: DMSO 101 % of control | endpoint: mean survival time, dose: 50.0 mg/kg/injection, schedule: Q04DX003 (ip), vehicle: DMSO 101 % of control | endpoint: mean survival time, dose: 100.0 mg/kg/injection, schedule: Q04DX003 (ip), vehicle: DMSO 101 % of control | endpoint: mean survival time, dose: 200.0 mg/kg/injection, schedule: Q04DX003 (ip), vehicle: DMSO 102 % of control | endpoint: mean survival time, dose: 200.0 mg/kg/injection, schedule: Q04DX003 (ip), vehicle: water 105 % of control | endpoint: mean survival time, dose: 400.0 mg/kg/injection, schedule: Q04DX003 (ip), vehicle: water 102 % of control | endpoint: mean survival time, dose: 600.0 mg/kg/injection, schedule: Q04DX003 (ip), vehicle: water 102 % of control

Cc1c(C)c2c(c(C)c1OC(=O)CCC(=O)O)CCC(C)(CCCC(C)CCCC(C)CCCC(C)C)O2 (stereo not drawn)
inactive: [1] 102 % of control | [2] 98 % of control | endpoint: mean survival time, dose: 400.0 mg/kg/injection, schedule: Q04DX003 (ip), vehicle: saline with Tween-80 94 % of control

O=Cc1cc2c(c3ccccc13)CCCC2
inactive: [3] 97 % of control | [4] 98 % of control | [5] 98 % of control

COC(=O)C1(C)CCCC2(C)C1CCC13OC1C1(C(C)C)OC1CC23 (stereo not drawn)
inactive: [3] 98 % of control | [4] 104 % of control | [5] 98 % of control

C1CC[N-]CC1.C1CC[N-]CC1.C1CC[N-]CC1.C1CC[N-]CC1.[Cl][Rh][Cl]
inactive: endpoint: mean survival time, dose: 6.25 mg/kg/injection, schedule: Q04DX003 (ip), vehicle: saline 98 % of control | endpoint: mean survival time, dose: 50.0 mg/kg/injection, schedule: Q01DX009 (ip), vehicle: saline 90 % of control

COC1OCC(N=[N+]=[N-])C(OS(C)(=O)=O)C1OS(C)(=O)=O (stereo not drawn)
inactive: endpoint: mean survival time, dose: 100.0 mg/kg/injection, schedule: Q01DX001 (ip), vehicle: saline with Tween-80 95 % of control | [3] 101 % of control | endpoint: mean survival time, dose: 200.0 mg/kg/injection, schedule: Q01DX001 (ip), vehicle: saline with Tween-80 98 % of control and 94 % of control | endpoint: mean survival time, dose: 400.0 mg/kg/injection, schedule: Q01DX001 (ip), vehicle: saline with Tween-80 94 % of control and 101 % of control | [5] 97 % of control

CN(Cc1cnc2nc(N)nc(N)c2n1)c1ccc(C(=O)NC(CCC(=O)O)C(=O)NCC(=O)O)cc1 (stereo not drawn)
inactive: endpoint: mean survival time, dose: 1.0 mg/kg/injection, schedule: Q01DX009 (ip), vehicle: sodium bicarbonate 103 % of control | endpoint: mean survival time, dose: 2.0 mg/kg/injection, schedule: Q01DX009 (ip), vehicle: sodium bicarbonate 109 % of control | endpoint: mean survival time, dose: 5.0 mg/kg/injection, schedule: Q01DX009 (ip), vehicle: sodium bicarbonate 102 % of control | endpoint: mean survival time, dose: 10.0 mg/kg/injection, schedule: Q01DX009 (ip), vehicle: sodium bicarbonate 108 % of control

O=C1c2ccccc2C(=O)c2cc(S(=O)(=O)Cl)ccc21
inactive: endpoint: mean survival time, dose: 100.0 mg/kg/injection, schedule: Q01DX009 (ip), vehicle: saline 99 % of control | endpoint: mean survival time, dose: 200.0 mg/kg/injection, schedule: Q01DX009 (ip), vehicle: saline 92 % of control | endpoint: mean survival time, dose: 400.0 mg/kg/injection, schedule: Q01DX009 (ip), vehicle: saline 86 % of control

[N-]=[N+]=NC1CCOC(n2cnc3c(N)ncnc32)C1O (stereo not drawn)
inactive: endpoint: median survival time, dose: 25.0 mg/kg/injection, schedule: Q01DX005 (ip), vehicle: Klucel (hydroxypropylcellulose) (HPC) 102 % of control | endpoint: median survival time, dose: 25.0 mg/kg/injection, schedule: Q01DX005 (ip), vehicle: Klucel + Tween-80 101 % of control | endpoint: median survival time, dose: 50.0 mg/kg/injection, schedule: Q01DX005 (ip), vehicle: Klucel (hydroxypropylcellulose) (HPC) 100 % of control | endpoint: median survival time, dose: 50.0 mg/kg/injection, schedule: Q01DX005 (ip), vehicle: Klucel + Tween-80 101 % of control | endpoint: median survival time, dose: 100.0 mg/kg/injection, schedule: Q01DX005 (ip), vehicle: Klucel (hydroxypropylcellulose) (HPC) 108 % of control | endpoint: median survival time, dose: 100.0 mg/kg/injection, schedule: Q01DX005 (ip), vehicle: Klucel + Tween-80 102 % of control | endpoint: median survival time, dose: 200.0 mg/kg/injection, schedule: Q01DX005 (ip), vehicle: Klucel (hydroxypropylcellulose) (HPC) 102 % of control | endpoint: median survival time, dose: 200.0 mg/kg/injection, schedule: Q01DX005 (ip), vehicle: Klucel + Tween-80 102 % of control

CCOc1ccc(CO)cc1
inactive: [3] 104 % of control | [4] 98 % of control | [5] 108 % of control

CCCCCC(O)C(C)C(C)C (stereo not drawn)
inactive: [6] 100 % of control | [3] 95 % of control | [4] 103 % of control

CC(=O)N1CCC(Cc2ccccc2)CC1
inactive: [7] 97 % of control | [8] 94 % of control | [9] 95 % of control

O=C(Cl)CCc1cc(Cl)no1
inactive: endpoint: mean survival time, dose: 25.0 mg/kg/injection, schedule: Q04DX003 (ip), vehicle: olive oil, sesame oil, peanut oil 96 % of control | endpoint: mean survival time, dose: 50.0 mg/kg/injection, schedule: Q04DX003 (ip), vehicle: olive oil, sesame oil, peanut oil 96 % of control | endpoint: mean survival time, dose: 100.0 mg/kg/injection, schedule: Q04DX003 (ip), vehicle: olive oil, sesame oil, peanut oil 103 % of control | endpoint: mean survival time, dose: 200.0 mg/kg/injection, schedule: Q04DX003 (ip), vehicle: olive oil, sesame oil, peanut oil 94 % of control | endpoint: mean survival time, dose: 400.0 mg/kg/injection, schedule: Q04DX003 (ip), vehicle: olive oil, sesame oil, peanut oil 103 % of control

O=C(CC(O)(C(F)(F)F)C(F)(F)F)c1ccco1
inactive: [6] 116 % of control | [3] 110 % of control | [1] 105 % of control | [2] 100 % of control

COc1ccc(NCCOc2ccccc2Br)cc1
inactive: endpoint: mean survival time, dose: 100.0 mg/kg/injection, schedule: Q04DX003 (ip), vehicle: other 97 % of control | endpoint: mean survival time, dose: 200.0 mg/kg/injection, schedule: Q04DX003 (ip), vehicle: other 101 % of control | endpoint: mean survival time, dose: 400.0 mg/kg/injection, schedule: Q04DX003 (ip), vehicle: other 95 % of control

CN1C(=O)[N+]2(CCCCC2)N=C1[O-]
inactive: [3] 96 % of control | [7] 91 % of control | [4] 102 % of control | [8] 97 % of control | [5] 106 % of control | [9] 95 % of control

CC1(C)/C(=N/Nc2ccc([N+](=O)[O-])cc2[N+](=O)[O-])C=Cc2ccccc21
inactive: endpoint: mean survival time, dose: 12.5 mg/kg/injection, schedule: Q01DX009 (ip), vehicle: other 105 % of control | endpoint: mean survival time, dose: 25.0 mg/kg/injection, schedule: Q01DX009 (ip), vehicle: other 94 % of control | endpoint: mean survival time, dose: 100.0 mg/kg/injection, schedule: Q01DX009 (ip), vehicle: other 90 % of control | endpoint: mean survival time, dose: 200.0 mg/kg/injection, schedule: Q01DX009 (ip), vehicle: other 94 % of control

CCN1C(=O)CC(O)C1=O (stereo not drawn)
inactive: endpoint: mean survival time, dose: 100.0 mg/kg/injection, schedule: Q01DX001 (ip), vehicle: saline 105 % of control | endpoint: mean survival time, dose: 200.0 mg/kg/injection, schedule: Q01DX001 (ip), vehicle: saline 103 % of control | endpoint: mean survival time, dose: 400.0 mg/kg/injection, schedule: Q01DX001 (ip), vehicle: saline 103 % of control
